Assay results taken from ChEMBL document CHEMBL4000224, “Cadiolides J-M, antibacterial polyphenyl butenolides from the Korean tunicate Pseudodistoma antinboja” (2017).
Values after ≈ are worked out from the molar mass of the structure shown. Active and inactive are the calls of the source. No cut-off for these calls is given here.

Experiments:
Assay type in all cases: functional
[1] = test system: Staphylococcus aureus; assay: Anti-bacterial activity against methicillin-susceptible Staphylococcus aureus CCARM 0204 by 2-fold microtiter broth dilution method
[2] = test system: Staphylococcus aureus; assay: Anti-bacterial activity against methicillin-susceptible Staphylococcus aureus CCARM 0205 by 2-fold microtiter broth dilution method
[3] = test system: Staphylococcus aureus; assay: Anti-bacterial activity against methicillin-susceptible Staphylococcus aureus CCARM 3640 by 2-fold microtiter broth dilution method
[4] = test system: Staphylococcus aureus; assay: Anti-bacterial activity against methicillin-resistant Staphylococcus aureus CCARM 3089 by 2-fold microtiter broth dilution method
[5] = test system: Staphylococcus aureus; assay: Anti-bacterial activity against methicillin-susceptible Staphylococcus aureus CCARM 0027 by 2-fold microtiter broth dilution method
[6] = test system: Staphylococcus aureus; assay: Anti-bacterial activity against methicillin-resistant Staphylococcus aureus CCARM 3635 by 2-fold microtiter broth dilution method
[7] = test system: Escherichia coli; assay: Anti-bacterial activity against Escherichia coli ATCC 11775 by 2-fold microtiter broth dilution method; conditions: DSM 30083 = JCM 1649 = ATCC 11775
[8] = test system: Staphylococcus aureus; assay: Anti-bacterial activity against methicillin-resistant Staphylococcus aureus CCARM 3634 by 2-fold microtiter broth dilution method
[9] = test system: Klebsiella pneumoniae; assay: Anti-bacterial activity against Klebsiella pneumoniae ATCC 4352 by 2-fold microtiter broth dilution method
[10] = test system: Staphylococcus aureus; assay: Anti-bacterial activity against methicillin-resistant Staphylococcus aureus CCARM 3090 by 2-fold microtiter broth dilution method
[11] = test system: Salmonella typhimurium; assay: Anti-bacterial activity against Salmonella typhimurium ATCC 14028 by 2-fold microtiter broth dilution method; conditions: Salmonella enterica subsp. enterica serovar Typhimurium

| Compound | MIC [1] | MIC [2] | MIC [3] | MIC [4] | MIC [5] | MIC [6] | Activity [7] | MIC [8] | Activity [9] | MIC [10] | Activity [11] |
| --- | --- | --- | --- | --- | --- | --- | --- | --- | --- | --- | --- |
| CN[C@H](CC(C)C)C(=O)N[C@H]1C(=O)N[C@@H](CC(N)=O)C(=O)N[C@H]2C(=O)N[C@H]3C(=O)N[C@H](C(=O)N[C@H](C(=O)O)c4cc(O)cc(O)c4-c4cc3ccc4O)[C@H](O)c3ccc(c(Cl)c3)Oc3cc2cc(c3O[C@@H]2O[C@H](CO)[C@@H](O)[C@H](O)[C@H]2O[C@H]2C[C@](C)(N)[C@H](O)[C@H](C)O2)Oc2ccc(cc2Cl)[C@H]1O [VANCOMYCIN] | 0.25 µg/mL (≈ 0.173 µM) | < 0.13 µg/mL | 0.25 µg/mL (≈ 0.173 µM) | – | – | – | – | – | – | – | – |
| COc1ccc(C=C2OC(=O)C([C@@H](O)c3cc(Br)c(OC)c(Br)c3)=C2c2cc(Br)c(O)c(Br)c2)cc1Br | 4 µg/mL (≈ 4.85 µM) | 2 µg/mL (≈ 2.42 µM) | 4 µg/mL (≈ 4.85 µM) | 8 µg/mL (≈ 9.7 µM) | 4 µg/mL (≈ 4.85 µM) | 4 µg/mL (≈ 4.85 µM) | inactive | 4 µg/mL (≈ 4.85 µM) | inactive | 4 µg/mL (≈ 4.85 µM) | inactive |
| CCCCCCCCCC(=O)N[C@@H](Cc1c[nH]c2ccccc12)C(=O)N[C@@H](CC(N)=O)C(=O)N[C@@H](CC(=O)O)C(=O)N[C@@H]1C(=O)NCC(=O)N[C@@H](CCCN)C(=O)N[C@@H](CC(=O)O)C(=O)N[C@H](C)C(=O)N[C@@H](CC(=O)O)C(=O)NCC(=O)N[C@H](CO)C(=O)N[C@@H]([C@H](C)CC(=O)O)C(=O)N[C@@H](CC(=O)c2ccccc2N)C(=O)O[C@@H]1C [DAPTOMYCIN] | 4 µg/mL (≈ 2.47 µM) | 2 µg/mL (≈ 1.23 µM) | 16 µg/mL (≈ 9.87 µM) | > 32 µg/mL | 16 µg/mL (≈ 9.87 µM) | > 32 µg/mL | – | > 32 µg/mL | – | > 32 µg/mL | – |
| COc1c(Br)cc([C@H](O)C2=C(c3cc(Br)c(O)c(Br)c3)/C(=C/c3ccc(O)c(Br)c3)OC2=O)cc1Br | 1 µg/mL (≈ 1.23 µM) | 0.5 µg/mL (≈ 0.617 µM) | 1 µg/mL (≈ 1.23 µM) | 2 µg/mL (≈ 2.47 µM) | 1 µg/mL (≈ 1.23 µM) | 1 µg/mL (≈ 1.23 µM) | inactive | 2 µg/mL (≈ 2.47 µM) | inactive | 2 µg/mL (≈ 2.47 µM) | inactive |
| O=C1O/C(=C\c2cc(Br)c(O)c(Br)c2)C(c2cc(Br)c(O)c(Br)c2)=C1[C@@H](O)c1cc(Br)c(O)c(Br)c1 | 1 µg/mL (≈ 1.14 µM) | 1 µg/mL (≈ 1.14 µM) | 1 µg/mL (≈ 1.14 µM) | 1 µg/mL (≈ 1.14 µM) | 2 µg/mL (≈ 2.28 µM) | 1 µg/mL (≈ 1.14 µM) | inactive | 1 µg/mL (≈ 1.14 µM) | inactive | 1 µg/mL (≈ 1.14 µM) | inactive |
| COc1ccc(C=C2OC(=O)C([C@@H](O)c3cc(Br)c(OC)c(Br)c3)=C2c2cc(Br)c(O)c(Br)c2)cc1 | 4 µg/mL (≈ 5.36 µM) | 4 µg/mL (≈ 5.36 µM) | 8 µg/mL (≈ 10.7 µM) | 4 µg/mL (≈ 5.36 µM) | 4 µg/mL (≈ 5.36 µM) | 4 µg/mL (≈ 5.36 µM) | inactive | 4 µg/mL (≈ 5.36 µM) | inactive | 8 µg/mL (≈ 10.7 µM) | inactive |
| C[C@]12C[C@@]34C=CC(=O)[C@@](C)(CCC(=O)Nc5c(O)ccc(C(=O)O)c5O)[C@@H]3[C@H](C[C@@H]1C4)O2 | 4 µg/mL (≈ 9.06 µM) | 4 µg/mL (≈ 9.06 µM) | 8 µg/mL (≈ 18.1 µM) | 8 µg/mL (≈ 18.1 µM) | 4 µg/mL (≈ 9.06 µM) | 8 µg/mL (≈ 18.1 µM) | – | 8 µg/mL (≈ 18.1 µM) | – | 8 µg/mL (≈ 18.1 µM) | – |
| COc1c(Br)cc([C@H](O)C2=C(c3ccc(O)c(Br)c3)/C(=C/c3cc(Br)c(O)c(Br)c3)OC2=O)cc1Br | 2 µg/mL (≈ 2.47 µM) | 2 µg/mL (≈ 2.47 µM) | 4 µg/mL (≈ 4.93 µM) | 4 µg/mL (≈ 4.93 µM) | 4 µg/mL (≈ 4.93 µM) | 4 µg/mL (≈ 4.93 µM) | inactive | 4 µg/mL (≈ 4.93 µM) | inactive | 4 µg/mL (≈ 4.93 µM) | inactive |
